From the supplement of paper PMC10307832

Columns and labels:
Experiment in all cases: relative viability (nuclei count vs DMSO), 5 days (fraction); higher = more cells survive
RU-SKI 43 = compound: CC[C@@H](C)CNCC(=O)N1CCC2=C([C@@H]1COC3=CC=CC(=C3)C)C=CS2 [RU-SKI 43]
In short: (§1)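 Only plates meeting two conditions passed: control CV below 25% and at least one doubling. Lung cancer cell lines, kept overnight at 37 °C in 1536-well plates, were pinned with five library-drug doses (not always all listed) √10 apart on vehicle-anchored plates and grown 5 days without medium change. A one-step fix, permeabilisation and Hoechst stain preceded 4× imaging and MetaXpress nuclear counting. Viability equals treated-well nuclei divided by vehicle-well nuclei, as the median over plates.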

Irinotecan = compound: CCc1c2c(nc3ccc(OC(=O)N4CCC(N5CCCCC5)CC4)cc13)-c1cc3c(c(=O)n1C2)COC(=O)[C@]3(O)CC [Irinotecan]
In short: as §1

MK-8033 = compound: Cn1cc(-c2cnc3ccc4ccc(CS(=O)(=O)NCc5ccccn5)cc4c(=O)c3c2)cn1 [MK-8033]
In short: as §1

Cell Line	relative viability (RU-SKI 43; 0.1 µM)	relative viability (RU-SKI 43; 0.3162 µM)	relative viability (RU-SKI 43; 1 µM)	relative viability (RU-SKI 43; 3.162 µM)	relative viability (RU-SKI 43; 10 µM)	relative viability (Irinotecan; 0.6325 µM)	relative viability (Irinotecan; 2 µM)	relative viability (Irinotecan; 6.325 µM)	relative viability (Irinotecan; 20 µM)	relative viability (MK-8033; 0.02 µM)	relative viability (MK-8033; 0.06325 µM)	relative viability (MK-8033; 0.2 µM)	relative viability (MK-8033; 0.6325 µM)	relative viability (MK-8033; 2 µM)
NCI-H1651	0.931	1.01	1.08	1.09	0.927	0.676	0.779	0.458	0.172	1.01	0.944	0.934	1.06	0.971
NCI-H1355	1.02	1.12	1.08	1.04	0.921		0.948	0.426	0.3	1.02	0.894	0.914	1.01	0.992
NCI-H1563	0.965	0.928	0.966	1.06	0.852	1.02	1.01	0.974	0.601	0.975	0.918	0.927	0.988	0.98
NCI-H1650	0.942	0.999	1.04	0.977	0.853	0.677	0.836	0.489	0.21	0.942	0.714	0.853	0.842	0.848
HCC-78	1.01	0.961	1.2	0.944	0.911	0.8	0.686	0.24	0.326	0.959	0.895	0.863	0.982	0.926
NCI-H1437	1.07	1.04	1.14	1.04	0.986	0.824	0.719	0.426	0.289	0.964	0.972	0.919	1.01	0.93
BEN	1.05	0.987	1.25	0.991	1.05	0.735	0.73	0.345	0.338	1.04	0.913	0.963	0.934	0.939
LCLC-103H	1.05	1.07	1.18	1.06	1.03	0.945	0.929	0.451	0.423	0.99	1	0.896	0.997	1.06
NCI-H1915	1.06	1.11	1.08	1	1.02	0.353	0.475	0.224	0.214	1	0.916	0.963	1.02	0.959
NCI-H2085	0.981	1.01	1.02	0.975	0.927	0.824	0.909	0.75	0.529	0.931	0.987	0.959	0.942	0.984
NCI-H23	1.03	1.18	1.1	1.1	0.926	0.693	0.73	0.332	0.234	0.977	0.897	0.893	1.06	0.86
EPLC-272H	1	0.905	1.07	0.857	0.915	0.419	0.665	0.282	0.243	0.923	0.745	0.85	0.991	0.76
EBC-1	0.863	1.13	1.1	0.989	0.635	0.618	0.44	0.345	0.179	0.973	0.943	0.965	0.928	0.386
SK-MES-1	1.05	1.16	1.01	1.05	0.977	0.873	0.799	0.327	0.236	0.925	0.935	0.942	0.96	0.998
A549	1	1.12	1.13	0.939	0.9	0.943	0.78	0.2	0.0915	0.996	0.932	0.93	0.913	0.943
NCI-H2126	1.01	0.99	1.05	1.04	0.985		1.07	0.552	0.387	0.978	0.901	0.911	0.976	1.02
NCI-H2087	1.06	1.11	1.17	0.995	0.933	0.406	0.496	0.187	0.203	1.2	1.02	0.953	1.08	1.1
EMC-BAC-2	1.04	0.983	1.28	0.97	0.971	0.562	0.616	0.328	0.231	1.13	0.904	0.916	1.03	0.947
SW 900	0.716	0.93	1.02	0.683	0.62	0.51	0.787	0.497	0.432	0.884	0.684	0.685	1.03	0.789
NCI-H1623	1.02	0.958	1.03	1.06	0.883	0.866	0.703	0.275	0.297	0.87	0.96	0.839	0.992	1.02
NCI-H647	1.04	0.987	1.13	1.07	0.996	0.866	0.815	0.191	0.142	0.919	0.943	0.89	0.935	0.874
NCI-H520	1.07	1.08	1.09	1.06	0.938	0.898	0.726	0.365	0.325	1.06	0.98	1.01	1.03	0.928
IA-LM	1.1	1.02	1.15	1.07	0.98	0.616	0.419	0.208	0.0921	0.886	0.933	0.933	0.93	0.952
LC-2-ad	0.967	1.02	1.16	0.963	0.932	0.47	0.492	0.299	0.191	0.953	0.938	0.936	1	0.927
